Reference: article PMC8388802, “Study on the Structure-Activity Relationship of an Antimicrobial Peptide, Brevinin-2GUb, from the Skin Secretion of Hylarana guentheri” (Antibiotics, 2021)
Values after ≈ are worked out from the molar mass of the structure shown. Where a SMILES comes first, the peptide text is derived from it.

Tests used:
[1] = system: K. pneumoniae (ATCC 43816) biofilm; type: cell-based, Klebsiella pneumoniae; settings: ATCC 43816, 24 h
Protocol: (§1) The anti-biofilm activities of the peptides against S. aureus (ATCC 6538), MRSA (NCTC 12493), E. faecalis (NCTC 12493), E. coli (ATCC CRM 8739), K. pneumoniae (ATCC 43816), and P. aeruginosa (ATCC CRM 9027) were evaluated.
(§2) The bacteria were inoculated in a different medium (Gram-positive bacteria were in TSB and Gram-negative bacteria were in LB) overnight, and the subculture was conducted in the same medium. When the bacteria reached a specific density, 100 µL of the dilution was added to each well of the 96-well microplate. Then 1 µL of peptide at a series of concentrations, the same concentration in the antimicrobial assay, were added into the well together with the bacteria. The plates were put into a moist shaking incubator with a speed of 200 rpm, and the temperature was set at 37 ℃. After a 24-h incubation, the liquid in the wells was aspirated, and each was washed twice by 100 µL PBS. One hundred µL of methanol were added into each well to stabilise the biofilm. After air-drying, 100 µL crystal violet was used to dye the biofilm, and they were dissolved in the 100 µL glacial acidic acid after drying. The solutions were transferred to a new microplate, and the absorbance of each well was tested by a microplate reader (EL808, Biolise BioTek Winooski, Minneapolis, MN, USA) at 595 nm wavelength. MBIC was the minimum concentration of the peptide showing no biofilm formation.
(§3) The bacteria were inoculated in a different medium (Gram-positive bacteria were in TSB and Gram-negative bacteria were in LB) overnight, and the subculture was conducted in the same medium. When the bacteria reached a specific density, 100 µL of the dilution was added to each well of the 96-well microplates. The plates were put into a moist shaking incubator with a speed of 200 rpm and the temperature was 37 ℃. After a 24 h incubation, the liquid in the wells was aspirated and they were washed twice by 100 µL PBS of each well. The peptides with the same concentrations were diluted in the corresponding medium and 100 µL were added into each well. After a 24-h incubation, the liquid in the wells was aspirated and they were washed twice by 100 µL PBS. One hundred µL of methanol were added into the wells to stabilise the biofilms. After being air-dried, 100 µL crystal violet was used to dye the biofilm, and they were dissolved in the 100 µL glacial acidic acid after drying. The solutions were transferred to a new microplate, and the absorbance of each well was tested by a microplate reader (EL808, Biolise BioTek Winooski, Minneapolis, USA) at 595 nm wavelength.

[2] = system: P. aeruginosa (ATCC CRM 9027) biofilm; type: cell-based, Pseudomonas aeruginosa; settings: ATCC CRM 9027, 24 h
Protocol: as §1, §2, §3

E. faecalis (NCTC 12493) = type: cell-based, Enterococcus faecalis
Protocol: The method of antimicrobial assay is based on the Methods for Dilution Antimicrobial Susceptibility Tests for Bacteria that Grow Aerobically from the Clinical and Laboratory Standards Institute (CLSI).The antimicrobial activities of peptides were evaluated against Gram-positive bacteria S. aureus (ATCC 6538), MRSA (NCTC 12493), E. faecalis (NCTC 12493), Gram-negative bacteria E. coli (ATCC CRM 8739), K. pneumoniae (ATCC 43816), P. aeruginosa (ATCC CRM 9027), yeast C. albicans (ATCC CRM 10231) and clinical isolates MRSA (B042 V2E1 A), E. coli (ATCC BAA-2340), K. pneumoniae (ATCC BAA-1705), P. aeruginosa (B004 V2S2 B).
At the first stage of the assay, 20 μL bacteria were cultured in 100 mL Mueller Hinton Broth (MHB) or Yeast Extract–Peptone–Dextrose broth (YPD-B), respectively, and was incubated overnight. Then, microorganisms were subcultured in 20 mL fresh MHB or YPD-B to achieve cultures in the logarithmic phase (1 × 10^8 CFU/mL), which can be verified by optical density (OD) (The OD of Gram-positive bacteria is 0.23, OD of Gram-negative bacteria is 0.4, and OD of yeast is 0.15), and viable cell counts. Then, the medium was used to dilute the cultures to specific cell densities (Gram-negative and Gram-positive bacteria: 5 × 10^5 CFU/mL; yeast: 1 × 10^6 CFU/mL), which were the final concentrations of bacterial suspensions used in the assay. The peptides were dissolved in DMSO to reach a final concentration of 512 µM. A series of two-fold dilutions ranging from 512 µM to 1 µM were dosed in the 96-well plates.
Antimicrobial assays were conducted in 96-well plates, which were divided into five groups, including a negative control group (PBS), a positive control group (20 μg/mL norfloxacin for bacteria and 10 μg/mL amphotericin B for yeast), vehicle control (1% DMSO), blank control (MHB or YPD-B), and a peptide group. Each microorganism had five repetitions, and each well contained 1 µL corresponding solution and 99 µL culture. After incubation at 37 °C overnight, the absorbance of each well was tested by a microplate reader (EL808, Biolise BioTek Winooski, Minneapolis, USA) under a 550 nm wavelength. The MIC is the lowest concentration at which no bacterial growth can be observed.
The next day, 10 µL of every clear well was taken out to be cultured on a Mueller Hinton Agar (MHA) plate and incubated at 37 °C for 16–20 h. The MBC is the lowest concentration without any bacterial colonies, which means at this concentration, the peptide reduces the viability of the pathogen by more than 99.9%.

[3] = system: horse red cells (defibrinated horse blood); assay: Haemolysis assay; type: cell-based; settings: 2% (v/v) horse red cell suspension mixed 1:1 with peptide in PBS, 37 ℃ 2 h, absorbance 570 nm, 0.1% Triton X-100 positive control; nine replicates from three independent tests
Protocol: The haemolysis assay was conducted on defibrinated horse blood (TCS Biosciences Ltd., Buckingham, UK), which was washed by PBS in advance. The peptides were dissolved in PBS to the concentration of 1024 μM, and a series of two-fold dilutions was made by PBS as well. A volume of different concentrations of 120 μL peptide solutions were mixed with the same volume of 2% (v/v) of horse red cell suspension gently in a 1.5 mL tube, and the complex was incubated at 37 ℃ for 2 h. PBS and 0.1% Triton X-100 with the same volume were used as the negative and positive controls, respectively. Each group had three replicates. After the incubation, 100 μL supernatant of each tube was aspirated into a new 96-well plate, and their absorbances were analysed by a microplate reader (EL808, Biolise BioTek Winooski, Minneapolis, USA) at a wavelength of 570 nm. The equation to calculate the haemolysis of the peptides is shown below. (2) […]=(A−An)/(Ap−An)×100%
A represents the absorbance of each well in the sample groups. An represents the average absorbance of the wells in the negative control group. Ap represents the average absorbance of the wells in the positive control group.

With `CC[C@H](C)[C@H](NC(=O)[C@@H](NC(=O)CN)C(C)C)C(=O)N[C@H](C(=O)N[C@@H](CCCCN)C(=O)N[C@@H](CCCCN)C(=O)N[C@@H](CC(C)C)C(=O)N[C@@H](CCCCN)C(=O)NCC(=O)N[C@@H](C)C(=O)N[C@@H](C)C(=O)N[C@@H](CCCCN)C(=O)N[C@@H](CCCCN)C(=O)N[C@H](C(=O)N[C@@H](C)C(=O)N[C@@H](C)C(=O)N[C@@H](CCCCN)C(=O)N[C@@H](CC(C)C)C(=O)N[C@@H](CC(C)C)C(N)=O)C(C)C)[C@@H](C)CC` [tB2U-6K] (H-GVIIKKLKGAAKKVAAKLL-NH2) the MBEC [1] was greater than 512 µM, the MBIC [1] was 32 µM and the MBEC [2] was greater than 512 µM. The MBIC [2] was 32 µM, the MBC (E. faecalis (NCTC 12493)) was 64 µM (≈ 125 µg/mL) and the MIC (E. faecalis (NCTC 12493)) was 64 µM (≈ 125 µg/mL). The HC50 [3] was 6506 µM.
Work on `CC[C@H](C)[C@H](NC(=O)[C@@H](NC(=O)CN)C(C)C)C(=O)N[C@H](C(=O)N[C@@H](CCCCN)C(=O)N[C@H](C(=O)N[C@@H](CC(C)C)C(N)=O)[C@@H](C)O)[C@@H](C)CC` [Peptide 7-tB2U-K] (H-GVIIKTL-NH2) yielded an MBEC [1] greater than 512 µM, an MBIC [1] greater than 512 µM and an MBEC [2] greater than 512 µM. For the same compound, the MBIC [2] was greater than 512 µM, the MBC (E. faecalis (NCTC 12493)) was greater than 512 µM and the MIC (E. faecalis (NCTC 12493)) was greater than 512 µM. The HC50 [3] was 11,008 μM.
For `CC[C@H](C)[C@H](NC(=O)[C@@H](NC(=O)CN)C(C)C)C(=O)N[C@H](C(=O)N[C@@H](CCCCN)C(=O)N[C@H](C(=O)N[C@@H](CC(C)C)C(=O)N[C@@H](CCCCN)C(=O)NCC(=O)N[C@@H](C)C(=O)N[C@@H](C)C(=O)N[C@@H](CCCCN)C(=O)N[C@H](C(=O)N[C@H](C(=O)N[C@@H](C)C(=O)N[C@@H](C)C(=O)N[C@@H](CCCCN)C(=O)N[C@@H](CC(C)C)C(=O)N[C@@H](CC(C)C)C(N)=O)C(C)C)[C@@H](C)O)[C@@H](C)O)[C@@H](C)CC` [tB2U-K] (H-GVIIKTLKGAAKTVAAKLL-NH2), the MBEC [1] was greater than 512 µM, the MBIC [1] was 128 µM and the MBEC [2] was greater than 512 µM. The MBIC [2] was 128 µM, the MBC (E. faecalis (NCTC 12493)) was 32 µM (≈ 60.6 µg/mL) and the MIC (E. faecalis (NCTC 12493)) was 32 µM (≈ 60.6 µg/mL). For the same compound, the HC50 [3] was 3056 µM.
For `CC[C@H](C)[C@H](NC(=O)[C@@H](NC(=O)CN)C(C)C)C(=O)N[C@H](C(=O)N[C@@H](CC(=O)O)C(=O)N[C@H](C(=O)N[C@@H](CC(C)C)C(=O)N[C@@H](CCCCN)C(=O)NCC(=O)N[C@@H](C)C(=O)N[C@@H](C)C(=O)N[C@@H](CCCCN)C(=O)N[C@H](C(=O)N[C@H](C(=O)N[C@@H](C)C(=O)N[C@@H](C)C(=O)N[C@@H](CCC(=O)O)C(=O)N[C@@H](CC(C)C)C(=O)N[C@@H](CC(C)C)C(N)=O)C(C)C)[C@@H](C)O)[C@@H](C)O)[C@@H](C)CC` [tB2U-α] (H-GVIIDTLKGAAKTVAAELL-NH2), the MBEC [1] was greater than 512 µM, the MBIC [1] was greater than 512 µM and the MBEC [2] was greater than 512 µM. For the same compound, the MBIC [2] was greater than 512 µM, the MBC (E. faecalis (NCTC 12493)) was greater than 512 µM and the MIC (E. faecalis (NCTC 12493)) was greater than 512 µM. For the same compound, the HC50 [3] was 15,609 μM.
For `CC[C@H](C)[C@H](NC(=O)[C@@H](NC(=O)CN)C(C)C)C(=O)N[C@H](C(=O)N[C@@H](CC(=O)O)C(=O)N[C@H](C(=O)N[C@@H](CC(C)C)C(=O)N[C@@H](CCCCN)C(=O)NCC(=O)N[C@@H](C)C(=O)N[C@@H](C)C(=O)N[C@@H](CCCCN)C(=O)N[C@H](C(=O)N[C@H](C(=O)N[C@@H](C)C(=O)N[C@@H](C)C(=O)N[C@@H](CCC(=O)O)C(=O)N[C@@H](CC(C)C)C(=O)N[C@@H](CC(C)C)C(=O)N[C@@H](CCCNC(=N)N)C(=O)N[C@@H](CCCCN)C(=O)N[C@@H](C)C(=O)N[C@@H](Cc1c[nH]cn1)C(N)=O)C(C)C)[C@@H](C)O)[C@@H](C)O)[C@@H](C)CC` [tB2U] (H-GVIIDTLKGAAKTVAAELLRKAH-NH2), the MBEC [1] was greater than 512 µM, the MBIC [1] was greater than 512 µM and the MBEC [2] was greater than 512 µM. It also gave an MBIC [2] greater than 512 µM, an MBC (E. faecalis (NCTC 12493)) greater than 512 µM and an MIC (E. faecalis (NCTC 12493)) greater than 512 µM. The HC50 [3] was 16,393 μM.
For `CC[C@H](C)[C@H](NC(=O)[C@@H](NC(=O)CN)C(C)C)C(=O)N[C@H](C(=O)N[C@@H](CCCCN)C(=O)N[C@H](C(=O)N[C@@H](CC(C)C)C(=O)N[C@@H](CCCCN)C(=O)NCC(=O)N[C@@H](C)C(=O)N[C@@H](C)C(=O)N[C@@H](CCCCN)C(=O)N[C@H](C(=O)N[C@H](C(N)=O)C(C)C)[C@@H](C)O)[C@@H](C)O)[C@@H](C)CC` [Peptide 14-tB2U-K] (H-GVIIKTLKGAAKTV-NH2), the MBEC [1] was greater than 512 µM, the MBIC [1] was greater than 512 µM and the MBEC [2] was greater than 512 µM. The MBIC [2] was greater than 512 µM, the MBC (E. faecalis (NCTC 12493)) was greater than 512 µM and the MIC (E. faecalis (NCTC 12493)) was greater than 512 µM. The HC50 [3] was 10,834 μM.
